In patent US8946266B2, “Substituted triazole and imidazole derivatives as gamma secretase modulators” (Janssen Pharmaceuticals, Inc., priority 2009, dated 2015):
Where two headings read alike, the source gives them in different places.

How the values were obtained:
Aβ42 [1] = assay: In vivo efficacy, Method 1: brain soluble Aβ42 lowering 4 h after a single oral dose, ELISA (Table 4a); design: species or system mouse; settings: dose 30 mg/kg oral dosing
Excerpt: To determine whether acute administration of an Aβ42 lowering agent would reduce Aβ42 levels in vivo, non-transgenic rodents, e.g. mice or rats were used. Alternatively, two to three month old Tg2576 mice expressing APP695 containing the “Swedish” variant can be used or a transgenic mouse model developed by Dr. Fred Van Leuven (K.U. Leuven, Belgium) and co-workers, with neuron-specific expression of a clinical mutant of the human amyloid precursor protein [V717I] (Moechars et al., 1999 J. Biol. Chem. 274, 6483). Young transgenic mice have high levels of Aβ in the brain but no detectable Aβ deposition. At approximately 6-8 months of age, the transgenic mice start to display spontaneous, progressive accumulation of β-amyloid (Aβ) in the brain, eventually resulting in amyloid plaques within the subiculum, hippocampus and cortex. Animals treated with the Aβ42 lowering agent were examined and compared to those untreated or treated with vehicle and brain levels of soluble Aβ42 and total Aβ would be quantitated by standard techniques, for example, using ELISA. Treatment periods varied from hours (h) to days and were adjusted based on the results of the Aβ42 lowering once a time course of onset of effect could be established.
A typical protocol for measuring Aβ42 lowering in vivo is shown but it is only one of many variations that could be used to optimize the levels of detectable Aβ. For example, Aβ42 lowering compounds were formulated in 20% of Captisol® (a sulfobutyl ether of β-cyclodextrin) in water or 20% hydroxypropyl cyclodextrin. The Aβ42 lowering agents were administered as a single oral dose or by any acceptable route of administration to overnight fasted animals. After 4 h, the animals were sacrificed and Aβ42 levels were analysed.
Blood was collected by decapitation and exsanguinations in EDTA-treated collection tubes. Blood was centrifuged at 1900 g for 10 minutes (min) at 4° C. and the plasma recovered and flash frozen for later analysis. The brain was removed from the cranium and hindbrain. The cerebellum was removed and the left and right hemisphere were separated. The left hemisphere was stored at −18° C. for quantitative analysis of test compound levels. The right hemisphere was rinsed with phosphate-buffered saline (PBS) buffer and immediately frozen on dry ice and stored at −80° C. until homogenization for biochemical assays.
Mouse brains were resuspended in 10 volumes of 0.4% DEA (diethylamine)/50 mM NaCl pH 10 (for non-transgenic animals) or 0.1% 3-[(3-cholamidopropyl)-dimethyl-ammonio]-1-propanesulfonate (CHAPS) in tris buffered saline (TBS) (for transgenic animals) containing protease inhibitors (Roche-11873580001 or 04693159001) per gram of tissue, e.g. for 0.158 g brain, add 1.58 ml of 0.4% DEA. All samples were sonicated for 30 seconds on ice at 20% power output (pulse mode). Homogenates were centrifuged at 221.300×g for 50 min. The resulting high speed supernatants were then transferred to fresh tubes and were optionally further purified before the next step. A portion of the supernatant was neutralized with 10% 0.5 M Tris-HCl and this was used to quantify Aβtotal.
The obtained supernatants were purified with Water Oasis HLB reverse phase columns (Waters Corp., Milford, Mass.) to remove non-specific immunoreactive material from the brain lysates prior subsequent Aβ detection. Using a vacuum manifold, all solutions were passed through the columns at a rate of approximately 1 ml per min, so the vacuum pressure was adjusted accordingly throughout the procedure. Columns were preconditioned with 1 ml of 100% MeOH, before equilibration with 1 ml of H2O, Non-neutralized brain lysates were loaded onto the columns. The loaded samples were then washed twice with the first wash performed with 1 ml of 5% MeOH, and the second wash with 1 ml of 30% MeOH. Finally, the Aβ was eluted from the columns and into 100×30 mm glass tubes, with a solution of 90% MeOH with 2% NH4OH. […]

Aβ42 [2] = assay: γ-secretase-modulating activity, Method 2: Aβ42 Alphalisa in supernatant of SKNBE2 cells carrying APP 695-wild type (Table 3b); assay type: cell-based; settings: overnight
In short: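 Aβ42 in the supernatant was quantified by AlphaLISA sandwich (JRF/cAβ42/26 with JRF/AβN/25). Cells were wild-type APP695 SKNBE2, exposed to compound overnight at 37° C., 5% CO2. Data were normalised to untreated maximum and fitted with a four-parameter curve to give IC50.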

Aβtotal = assay: γ-secretase-modulating activity, Method 2: Aβtotal Alphalisa in supernatant of SKNBE2 cells carrying APP 695-wild type (Table 3b); assay type: cell-based; settings: overnight, read-out: IC50 Aβtot
In short: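 Secreted Aβtotal was quantified by AlphaLISA pairing an N-terminal antibody (JRF/AβN/25) with biotinylated mid-region 4G8. Wild-type APP 695 SKNBE2 cells received serially varied compound overnight at 37 °C; IC50 came from a 4-parameter nonlinear regression of percent of control against log dose.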

In the case of `COc1cc(-c2nc(-c3ccccc3)n(C)n2)ccc1-n1cnc(C)c1` [Compound 9], the “Aβ42 (% Ctrl) _Mean” value (Aβ42 [1]) is reported as 24 % Ctrl, the IC50 (Aβ42 [2]; Homo sapiens) is reported as 0.603 µM and the IC50 (Aβtotal; Homo sapiens) is reported as over 10 µM.
With `COc1cc(-c2nc(C)c(-c3ccccc3)[nH]2)ccc1-n1cnc(C)c1` [Compound 11] the “Aβ42 (% Ctrl) _Mean” value (Aβ42 [1]) was 4 % Ctrl, the IC50 (Aβ42 [2]; Homo sapiens) was 0.182 µM and the IC50 (Aβtotal; Homo sapiens) was over 10 µM.
`COc1cc(-c2nc(Nc3ccc(F)cc3C(F)(F)F)n(C)n2)ccc1-n1cnc(C)c1` [Compound 15] was tested, and the “Aβ42 (% Ctrl) _Mean” value (Aβ42 [1]) was 42 % Ctrl, the IC50 (Aβ42 [2]) was 0.05 µM and the IC50 (Aβtotal) was over 10 µM.
With `COc1cc(-c2nc(Nc3cccc(C(F)(F)F)c3)n(C)n2)ccc1-n1cnc(C)c1` [Compound 146] the “Aβ42 (% Ctrl) _Mean” value (Aβ42 [1]) was 27 % Ctrl, the IC50 (Aβ42 [2]) was 0.015 µM and the IC50 (Aβtotal) was 4.07 µM.
